# According to US20210275646A1, “PHARMACOLOGIC TREATMENT FOR RIGHT VENTRICULAR FAILURE” (The Trustees of Columbia University in the City of New York, priority 2018, published 2021):
# Legend:
# Type in all cases: cell-based
# [1] = system: neonatal rat ventricular myocytes (NRVMs); test: LC3-II/I ratio (Western) in NRVMs treated with bafilomycin A or chloroquine, canonical versus non-canonical autophagy; conditions: BafA 100 nM, 1 h; si-Wipi1 and si-scramble transfected NRVMs
# [2] = system: neonatal rat ventricular myocytes (NRVMs); test: Western blot of protein expression in siRNA-transfected NRVMs with or without aldosterone
# Description: Total proteins were extracted from tissues and NRVMs with the T-PER lysis buffer (Thermo Scientific) supplemented with the Halt Protease and Phosphatase Inhibitor Cocktail (Thermo Scientific). Protein extraction from mouse tissues was performed using a BeadBug Benchtop Homogenizer and zirconium beads (Sigma). Protein quantification was performed with the BCA reagent (Pierce). Total protein samples were resolved on NuPAGE 4-12% Bis-Tris gradient gels (Invitrogen) and transferred to 0.2 μm Nitrocellulose membranes (Biorad) for immunoblotting. Membranes were stained with the LI-COR Revert Total Protein Stain kit and analyzed as per manufacturer's instructions. Membranes were blocked and then incubated with primary antibodies as detailed in Table 2 at 4° C. overnight. Membranes were then washed and incubated with the appropriate LI-COR secondary antibody. Membranes were imaged using the ODYSSEY-Classic infrared system from LI-COR. Protein expression was normalized to total protein.
# (§1) Neonatal Sprague-Dawley rats were euthanized by decapitation within the first 24 h after birth and beating hearts heart fragments were rinsed in 1×PBS without pen/strep and digested in 0.1% Trypsin solution in 1×PBS (0.8 ml of 0.1% Trypsin solution per heart) for 15 min at 37° C. The supernatant was collected and the remaining tissue was further digested repeatedly for a total of 10 times, with serial collection of supernatant. Digestion was stopped on ice with 10% FBS, and cells were collected from pooled supernatant by centrifugation at 1500 rpm for 5 min at room temperature. The cell pellet was resuspended in an adequate volume of complete medium. Cells were counted and plated in 10 cm dishes for ˜1 h at 37° C., 5% CO2 at a density of 10×10^6 cells per plate (pre-plating). During this pre-plating step, non-myocytes including fibroblasts adhere to the plate, while NRVMs remain in suspension. The supernatant cells were subsequently seeded on protamine sulfate coated dishes (10^5 cells/cm^2) and were left to attach for 12 h. NRVM primary cultures were maintained in MEM medium supplemented with 10% FBS, penicillin (100 units/ml)/streptomycin (100 μg/ml) (Gibco-Fisher Scientific). 1-β-D-Arabinofuranosyl-cytosine (AraC 20 μM, Calbiochem-Sigma) was also added to the culture medium to inhibit fibroblast proliferation.
# (§2) At 24 h following isolation, NRVMs were transfected with siRNAs using the Dharmafect #1 transfection reagent according to the manufacturers protocol (Dharmacon). NRVMs were plated at a density of ˜10^5 cells/cm^2 and transfected with 10 nM of a pool of either non-targeting siRNA (siRNA-scramble control) or siRNAs against the rat Wipi1 gene (siRNA-Wipi1). All siRNAs were ON-TARGETplus SMARTpool siRNAs (Dharmacon). Following a 24 h transfection period, the medium was changed to serum-free DMEM:F12 supplemented with penicillin (100 units/ml)/streptomycin (100 μg/ml). After ˜12 h of serum-starvation, the cells were incubated with aldosterone (250 μg/ml) in serum-free DMEM:F12 culture medium for 48 h at 37° C., 5% Ca. Serum-free DMEM:F12 culture medium without any aldosterone was used as a comparative control to neurohormone activation.
# [3] = system: neonatal rat ventricular myocytes (NRVMs); test: RT-qPCR of transcript expression in siRNA-transfected NRVMs with or without aldosterone
# Description: Total RNA were extracted from human and mouse tissues and cultured neonatal rat ventricular myocytes (NRVMs) using the Tissue RNA Purification Kit (Norgen Biotek) and the TRIzol reagent (Invitrogen) respectively, according to the manufacturer's instructions. RNA was quantified with the NanoDrop-2000c instrument (Thermo Scientific), and cDNA synthesis was performed with iScript reverse transcription Supermix (BioRad). Quantitative RT-PCR was performed on a CFX96 thermal cycler using the iTac Universal SYBR green Supermix (Biorad) and specific primers. Gene expression was normalized to Rps13, and relative mRNA expression was quantified using the ΔΔCt method. For data robustness and reproducibility, target genes were also normalized to Rps15.
# as §1
# as §2, with “After ˜12 h of serum-starvation, the cells were incubated with aldosterone (250 μg/ml) in serum-free DMEM:F12 culture medium for 48 h at 37° C., 5% Ca.” left out
# [4] = system: neonatal rat ventricular myocytes (NRVMs); test: MTT assay of cell viability
# Description: To assess NRVM viability, the Vybrant MTT cell proliferation assay kit was used (Molecular probes). Initially, NRVM were seeded on 96-well plates at ˜3×10^4 cells/well (˜10^5 cells/cm^2, the same density as in other assays) and were treated identically as in the siRNA transfection assays (including transfection, serum starvation and neurohormonal stimulation). In addition, increasing number of cells ranging from 2×10^4 to 14×10^4 were used to create a standard curve and to calculate the linearity between absorbance at 595 nm and cell number. Prior to labelling with MTT, the medium was removed and 100 μl of fresh medium was added to each well. The same amount of medium (100 μl) without cells was used as negative control (blank). The cells and the negative control were labeled with 10 μl of 12 mM MTT/well and were incubated at 37° C. for 4 h. Subsequently, 100 μl of SDS-HCL solution was added to each well, mixed thoroughly and incubated for 4 h at 37° C. Finally, the absorbance at 595 nm was measured on a plate reader and the % of cell viability was calculated using the formula:
# % of viability=(A595sample/A595reference)×100
# [5] = system: neonatal rat ventricular myocytes (NRVMs); test: MitoSOX Red analysis of mitochondrial superoxide level; conditions: Aldo 1 μM 48 h, si-scramble control NRVMs
# Description: Neonatal rat ventricular myocytes (NRVMs) were transfected with scramble or Wipi1-specific siRNAs and then stimulated with aldosterone (Aldo, 1 μM, 48 h) or hydrogen peroxide (H2O2, 50 μM, 2 h).
# as §2
# Mitochondrial superoxide level was monitored with the MitoSOX™ Red mitochondrial superoxide indicator for live-cell imaging (Molecular Probes). […] The red fluorescent signal was measured with ImageJ software and normalized to the brightfield signal.
# [6] = NRVMs, si-Wipi1 vs si-scramble, with or without aldosterone
# [7] = aldosterone 48 h, si-scramble control NRVMs, serum starved
Structure (SMILES),LC3-II/I ratio [1],"Hspb6 protein expression [2, 6]","Snap47 or Prdx5 protein expression [2, 6]","Ser16-HSPB6 phosphorylation ([2]; aldosterone 48 h, si-scramble NRVMs, serum starved)","BECN1 expression [2, 7]","LC3-lipidation [2, 7]","Map4 protein expression ([2]; aldosterone, si-scramble control NRVMs)","Snap47 or Prdx5 transcript expression [3, 6]","Map4 transcript levels ([3]; aldosterone stimulation, in either si-Wipi1 or si-scramble NRVMs)","Hspb6 transcript expression ([3]; aldosterone, both si-Wipi1 and si-scramble NRVMs)","expression of Nppa, Nppb, Acta1, and Myh7 (fetal gene program) ([3]; si-scramble control NRVMs, Aldo 1 μM 48 h)",cell viability [4],mitochondrial superoxide levels [5]
"CO/C1=C\C(C)=C\[C@@H](C)[C@@H](O)[C@@H](C)C/C(C)=C/C=C/[C@H](OC)[C@@H]([C@@H](C)[C@@H](O)[C@H](C)[C@@]2(O)C[C@@H](O)[C@H](C)[C@@H](C(C)C)O2)OC1=O [BafA, bafilomycin A]",increased,,,,,,,,,,,,
C[C@]12CCC(=O)C=C1CC[C@@H]1[C@@H]2[C@@H](O)C[C@]2(C=O)[C@@H](C(=O)CO)CC[C@@H]12 [aldosterone],,consistent with transcript data,Neither silencing Wipi1 nor stimulation with aldosterone affected,did decrease,did not affect,did not affect,did induce,Neither silencing Wipi1 nor stimulation with aldosterone affected,did not affect,stimulated,significantly increased,Neither aldosterone stimulation nor silencing Wipi1 negatively impacted,increased
